In PubChem BioAssay (NCI):
Values joined by “and” are separate entries in the source; they are usually repeats but may differ in a detail not shown here. Identical values can stand only once.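 Results reflect a 48-hour exposure of cells in 96-well plates to compound at five concentrations. GI50 marks 50% less growth. TGI: total growth inhibition.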

Legend:
Test in all cases: NCI-60 cell line screen, 48 h
[1] = test system: CCRF-CEM leukemia
[2] = test system: HOP-92 NSCLC
[3] = test system: K-562 leukemia
[4] = test system: KM12 colon
[5] = test system: LOX IMVI melanoma
[6] = test system: MALME-3M melanoma
[7] = test system: NCI-H23 lung
[8] = test system: NCI-H460 lung
[9] = test system: SW-620 colon
[10] = test system: U251 CNS

Row | Compound | TGI [1] [µM] | TGI [2] [µM] | TGI [3] [µM] | TGI [4] | TGI [5] [µM] | TGI [6] [µM] | TGI [7] | TGI [8] | TGI [9] [µM] | TGI [10] | GI50 [1] | GI50 [2] [µM] | GI50 [3] [µM] | GI50 [4] [µM] | GI50 [5] [µM] | GI50 [6] [µM] | GI50 [7] [µM] | GI50 [8] [µM] | GI50 [9] [µM] | GI50 [10] [µM]
1 | Cc1ccc(NC(=O)/C(=N\Nc2ccc([N+](=O)[O-])cc2[N+](=O)[O-])C2C(=O)NC(=O)NC2=O)cc1 | > 100 | > 100 | > 100 | > 100 µM | > 100 | > 100 | > 100 µM | > 100 µM | > 100 | > 100 µM | – | – | – | – | – | – | – | – | – | –
2 | CCOC(=O)NN1C(=O)C(=P(c2ccccc2)(c2ccccc2)c2ccccc2)C(C(=O)OCC)=C1C | > 100 | > 100 | > 100 | > 100 µM | > 100 | > 100 | > 100 µM | > 100 µM | > 100 | > 100 µM | – | – | – | – | – | – | – | – | – | –
3 | CCOc1ccc(NCc2cc(OC)c(OC)c(OC)c2)cc1 | > 74.9 | > 91.6 | > 63.1 | > 81.5 µM and 46.4 µM | > 84 | > 100 | 31.4 µM and 39.3 µM | > 100 µM and 58 µM | > 100 | 19.3 µM and 22.3 µM | 0.759 µM and 1.7 µM | – | – | – | – | – | – | – | – | –
4 | Cc1cc2c3ccccc3n(C)c2c2c1C(=O)C=CC2=O | > 36 | 25 | > 74 | 33.6 µM | 32.9 | 45.7 | 27.4 µM | 33.2 µM | 32.8 | 32.6 µM | – | – | – | – | – | – | – | – | – | –
5 | C[C@@H]1COCCN1c1cc(C2(S(C)(=N)=O)CC2)nc(-c2ccnc3[nH]ccc23)n1 (stereo not given in full) | > 100 | 31.6 | > 100 | 63.1 µM | 12.7 | 34 | 34.3 µM | 20.6 µM | 95.1 | 63.9 µM | 1.55 µM | 2.49 | 3.22 | 5.72 | 1.63 | 5.55 | 2.62 | 1.07 | 8.36 | 5.46
6 | CC(=O)[O-].CC(=O)[O-].[NH2-].[Pt+2].c1ccc2cnccc2c1 | > 100 | 90.6 | 51.8 | > 100 µM | 31.7 | > 100 | > 100 µM | > 100 µM | 38.3 | 20.3 µM | 14.1 µM | 16.2 | 15.6 | 13.5 | 9.19 | 12.9 | 47.7 | 26.2 | 16.2 | 6.26
7 | CC(CNC(Cc1ccccc1)c1ccccc1)NC(Cc1ccccc1)c1ccccc1 (stereo not given) | 7.84 | 4.09 | 6.41 | 5.85 µM | 2.98 | 3.36 | 4.46 µM | 4.06 µM | 8.53 | 7.37 µM | 2.74 µM | 1.83 | 2.48 | 2.36 | 1.62 | 1.68 | 1.94 | 2.03 | 2.75 | 2.59
8 | COc1cc([C@@H]2c3cc4c(cc3[C@@H](NC(=O)c3ccccc3)C3COC(=O)[C@@H]32)OCO4)cc(OC)c1O (stereo not given in full) | > 100 | 87.9 | 33.8 | 28.3 µM | 25.1 | 26.6 | 10.7 µM | 15.2 µM | > 100 | 13.5 µM | – | – | – | – | – | – | – | – | – | –
9 | COc1ccc2oc3cccc(NCCN(C)C)c3c(=O)c2c1 | 32.1 | 27.9 | 25.3 | 26.7 µM | 22.7 | 29.2 | 32.7 µM | 21.2 µM | 15.6 | 25.3 µM | – | – | – | – | – | – | – | – | – | –
10 | CC1OC2CC(=O)OC2C2=C1C(=O)c1c(O)c3c(c(O)c1C2=O)C1CC(O)C3(O)C(C)O1 (stereo not given) | 13.6 | 3.56 | 11.5 | 2.02 µM | 0.476 | 0.385 | 1.55 µM | 3.14 µM | 0.774 | 1.07 µM | 0.26 µM | 1.06 | 0.336 | 0.664 | 0.104 | 0.142 | 0.414 | 0.784 | 0.168 | 0.296
11 | O=C1/C(=C/c2ccc(O)cc2)COc2ccc(-c3ccccc3)cc21 | – | 31 | > 39.3 | 7.54 µM | 13.3 | 30.6 | 29.6 µM | 15.8 µM | 8.06 | 17.8 µM | 0.237 µM | 7.63 | 2.57 | 2.28 | 3.54 | 8.38 | 12.4 | 3.73 | 2.8 | 5.1
